Data taken from ChEMBL document CHEMBL3526141, “Characterization of human liver enzymes involved in the biotransformation of boceprevir, a hepatitis C virus protease inhibitor” (Drug Metab Dispos, 2011).
One block for each molecule: values may come before it.

Experiments:
Liver microsome [1] = experiment: Drug metabolism in human liver microsomes treated with 20 uM [14C]boceprevir assessed as compound formation by LC-MS/FSA method relative to total [14C]boceprevir; assay type: ADME
Cytochrome P450 3A4 [2] = biological target: T1, Cytochrome P450 3A4 (Homo sapiens, UniProt P08684); experiment: Drug metabolism assessed as human CYP3A4-mediated compound formation from 5 uM [14C]boceprevir after 120 mins by LC-MS/FSA method relative to total [14C]boceprevir; assay type: ADME; conditions: recombinant enzyme, 2 h
Cytochrome P450 3A4 [3] = biological target: T1, Cytochrome P450 3A4; experiment: Drug metabolism assessed as human CYP3A4-mediated compound formation from 20 uM [14C]boceprevir after 120 mins by LC-MS/FSA method relative to total [14C]boceprevir; assay type: ADME; conditions: recombinant enzyme, 2 h
Cytochrome P450 3A5 [4] = biological target: T2, Cytochrome P450 3A5 (Homo sapiens, UniProt P20815); experiment: Drug metabolism assessed as human CYP3A5-mediated compound formation from 20 uM [14C]boceprevir after 120 mins by LC-MS/FSA method relative to total [14C]boceprevir; assay type: ADME; conditions: recombinant enzyme, 2 h
Liver microsome [5] = experiment: Drug metabolism in human liver microsomes treated with 5 uM [14C]boceprevir assessed as compound formation by LC-MS/FSA method relative to total [14C]boceprevir; assay type: ADME
Cytochrome P450 1A2 = biological target: T3, Cytochrome P450 1A2 (Homo sapiens, UniProt P05177); experiment: (§1) Drug metabolism assessed as human […]-mediated compound formation from 5 uM [14C]boceprevir after 120 mins by LC-MS/FSA method relative to total [14C]boceprevir; assay type: ADME; conditions: recombinant enzyme, 2 h
T3 sequence (P05177 whole entry): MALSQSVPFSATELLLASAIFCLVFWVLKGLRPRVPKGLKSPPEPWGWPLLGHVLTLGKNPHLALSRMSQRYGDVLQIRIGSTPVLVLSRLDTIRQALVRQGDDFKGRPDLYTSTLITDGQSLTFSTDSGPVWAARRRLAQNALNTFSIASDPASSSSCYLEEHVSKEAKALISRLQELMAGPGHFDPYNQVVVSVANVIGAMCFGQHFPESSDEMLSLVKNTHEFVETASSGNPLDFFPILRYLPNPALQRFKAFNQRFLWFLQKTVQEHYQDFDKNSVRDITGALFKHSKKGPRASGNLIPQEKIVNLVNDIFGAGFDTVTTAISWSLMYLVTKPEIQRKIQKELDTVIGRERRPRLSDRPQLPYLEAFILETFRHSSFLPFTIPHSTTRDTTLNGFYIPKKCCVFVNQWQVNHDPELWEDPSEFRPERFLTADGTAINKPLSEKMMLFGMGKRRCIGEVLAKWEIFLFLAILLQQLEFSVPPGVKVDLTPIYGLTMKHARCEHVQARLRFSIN

Cytochrome P450 1A1 = biological target: T4, Cytochrome P450 1A1 (Homo sapiens, UniProt P04798); experiment: as §1; assay type: ADME; conditions: recombinant enzyme, 2 h
T4 sequence (P04798 whole entry): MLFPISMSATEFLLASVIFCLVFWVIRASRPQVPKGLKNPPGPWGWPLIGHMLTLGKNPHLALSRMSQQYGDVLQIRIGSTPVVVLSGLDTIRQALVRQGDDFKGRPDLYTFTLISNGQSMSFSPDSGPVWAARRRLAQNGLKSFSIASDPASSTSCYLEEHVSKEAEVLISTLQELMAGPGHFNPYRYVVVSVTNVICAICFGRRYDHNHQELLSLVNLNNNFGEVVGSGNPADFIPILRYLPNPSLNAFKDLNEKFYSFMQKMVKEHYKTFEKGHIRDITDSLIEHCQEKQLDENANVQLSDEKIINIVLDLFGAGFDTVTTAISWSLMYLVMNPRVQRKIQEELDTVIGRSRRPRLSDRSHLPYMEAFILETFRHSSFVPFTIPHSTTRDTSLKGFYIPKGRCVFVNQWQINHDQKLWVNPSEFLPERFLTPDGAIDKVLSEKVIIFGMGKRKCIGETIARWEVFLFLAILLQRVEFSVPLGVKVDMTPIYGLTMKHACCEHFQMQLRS

Cytochrome P450 2B6 = biological target: T5, Cytochrome P450 2B6 (Homo sapiens, UniProt P20813); experiment: Drug metabolism assessed as human CYP2B6-mediated compound formation from 5 uM [14C]boceprevir after 120 mins by LC-MS/FSA method relative to total [14C]boceprevir; assay type: ADME; conditions: recombinant enzyme, 2 h
T5 sequence (P20813 whole entry): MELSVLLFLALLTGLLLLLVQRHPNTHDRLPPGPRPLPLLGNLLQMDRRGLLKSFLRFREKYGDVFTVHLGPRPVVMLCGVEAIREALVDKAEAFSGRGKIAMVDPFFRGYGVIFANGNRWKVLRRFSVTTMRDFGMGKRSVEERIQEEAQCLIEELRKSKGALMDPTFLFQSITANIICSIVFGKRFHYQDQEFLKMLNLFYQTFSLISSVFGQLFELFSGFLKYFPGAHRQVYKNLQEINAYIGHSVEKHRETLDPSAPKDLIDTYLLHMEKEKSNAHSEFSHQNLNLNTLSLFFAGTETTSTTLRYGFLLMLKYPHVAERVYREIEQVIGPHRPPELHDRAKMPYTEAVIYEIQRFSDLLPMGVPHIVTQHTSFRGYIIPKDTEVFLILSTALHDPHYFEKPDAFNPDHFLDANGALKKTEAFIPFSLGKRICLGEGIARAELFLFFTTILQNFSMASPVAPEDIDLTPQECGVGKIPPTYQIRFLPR

Cytochrome P450 3A5 [6] = biological target: T2, Cytochrome P450 3A5; experiment: Drug metabolism assessed as human CYP3A5-mediated compound formation from 5 uM [14C]boceprevir after 120 mins by LC-MS/FSA method relative to total [14C]boceprevir; assay type: ADME; conditions: recombinant enzyme, 2 h
Plasma = experiment: Drug metabolism in human plasma treated with [14C]boceprevir assessed as ratio of drug level by LC-MS/MS method relative to boceprevir; assay type: ADME, cell-free
Cytochrome P450 2C19 = Cytochrome P450 2C19 (Homo sapiens, UniProt P33261); experiment: Drug metabolism assessed as human CYP2C19-mediated compound formation from 5 uM [14C]boceprevir after 120 mins by LC-MS/FSA method relative to total [14C]boceprevir; assay type: ADME; conditions: recombinant enzyme, 2 h
[7] = Retention time of the compound by LC-MS/MS method; assay type: physicochemical
Cytochrome P450 4F3 = biological target: T6, Cytochrome P450 4F3 (Homo sapiens, UniProt Q08477); experiment: Drug metabolism assessed as human CYP4F3A-mediated compound formation from 5 uM [14C]boceprevir after 120 mins by LC-MS/FSA method relative to total [14C]boceprevir; assay type: ADME; conditions: recombinant enzyme, 2 h
T6 sequence (Q08477 whole entry): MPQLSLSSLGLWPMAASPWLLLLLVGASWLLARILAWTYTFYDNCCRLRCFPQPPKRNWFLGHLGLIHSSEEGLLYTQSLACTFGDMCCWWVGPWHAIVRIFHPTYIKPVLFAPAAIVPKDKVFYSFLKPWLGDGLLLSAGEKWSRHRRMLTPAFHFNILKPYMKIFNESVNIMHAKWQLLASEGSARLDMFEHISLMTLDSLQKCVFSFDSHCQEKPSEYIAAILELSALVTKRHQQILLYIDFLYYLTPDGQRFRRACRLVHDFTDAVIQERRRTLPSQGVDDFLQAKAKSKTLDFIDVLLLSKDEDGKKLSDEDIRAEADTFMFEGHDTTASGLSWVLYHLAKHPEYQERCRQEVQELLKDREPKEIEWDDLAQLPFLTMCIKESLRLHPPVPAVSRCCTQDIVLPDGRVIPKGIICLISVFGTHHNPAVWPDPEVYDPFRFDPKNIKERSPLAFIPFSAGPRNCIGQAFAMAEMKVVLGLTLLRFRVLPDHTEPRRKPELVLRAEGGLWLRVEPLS

[8] = Drug metabolism in human liver mitochondria treated with 20 uM assessed as compound formation in presence of NADPH generating system by LC-MS/MS/FSA method; assay type: ADME
[9] = Drug metabolism in human liver S9 fraction treated with 20 uM assessed as compound formation in presence of NADPH generating system by LC-MS/MS/FSA method; assay type: ADME, subcellular
Liver cytosol [10] = experiment: Drug metabolism in human liver cytosol treated with 20 uM [14C]SCH 534129 assessed as 100 uM diazepam-mediated inhibition of metabolite formation LC-MS/MS/FSA method; assay type: ADME, tissue-based; parameters: interact cpd dose 100 uM
Liver cytosol [11] = experiment: Drug metabolism in human liver cytosol treated with 20 uM assessed as compound formation in presence of NADPH generating system by LC-MS/MS/FSA method; assay type: ADME
Liver cytosol [12] = experiment: Drug metabolism in human liver cytosol treated with 20 uM [14C]SCH 534129 assessed as 1 mM ibuprofen-mediated inhibition of metabolite formation LC-MS/MS/FSA method; assay type: ADME, tissue-based; parameters: interact cpd dose 1 mM
Liver cytosol [13] = experiment: Ratio of Vmax to Km for drug metabolism in human liver cytosol assessed as (1R,2S,5S)-N-((2S,3R)-4-amino-1-cyclobutyl-3-hydroxy-4-oxobutan-2-yl)-3-((S)-2-(3-tert-butylureido)-3,3-dimethylbutanoyl)-6,6-dimethyl-3-azabicyclo[3.1.0]hexane-2-carboxamide formation per mg protein after 60 mins by LC-MS/MS/FSA method; assay type: ADME; conditions: 1 h
Liver cytosol [14] = experiment: Drug metabolism in human liver cytosol assessed as (1R,2S,5S)-N-((2S,3R)-4-amino-1-cyclobutyl-3-hydroxy-4-oxobutan-2-yl)-3-((S)-2-(3-tert-butylureido)-3,3-dimethylbutanoyl)-6,6-dimethyl-3-azabicyclo[3.1.0]hexane-2-carboxamide formation after 60 mins by LC-MS/MS/FSA method; assay type: ADME, tissue-based; conditions: 1 h
Liver cytosol [15] = experiment: Drug metabolism in human liver cytosol assessed as (1R,2S,5S)-N-((2R,3R)-4-amino-1-cyclobutyl-3-hydroxy-4-oxobutan-2-yl)-3-((S)-2-(3-tert-butylureido)-3,3-dimethylbutanoyl)-6,6-dimethyl-3-azabicyclo[3.1.0]hexane-2-carboxamide formation per mg protein after 60 mins by LC-MS/MS/FSA method; assay type: ADME, tissue-based; conditions: 1 h
Liver cytosol [16] = experiment: Ratio of Vmax to Km for drug metabolism in human liver cytosol assessed as (1R,2S,5S)-N-((2R,3R)-4-amino-1-cyclobutyl-3-hydroxy-4-oxobutan-2-yl)-3-((S)-2-(3-tert-butylureido)-3,3-dimethylbutanoyl)-6,6-dimethyl-3-azabicyclo[3.1.0]hexane-2-carboxamide formation per mg protein after 60 mins by LC-MS/MS/FSA method; assay type: ADME; conditions: 1 h
Liver cytosol [17] = experiment: Drug metabolism in human liver cytosol assessed as (1R,2S,5S)-N-((2S,3R)-4-amino-1-cyclobutyl-3-hydroxy-4-oxobutan-2-yl)-3-((S)-2-(3-tert-butylureido)-3,3-dimethylbutanoyl)-6,6-dimethyl-3-azabicyclo[3.1.0]hexane-2-carboxamide formation per mg protein after 60 mins by LC-MS/MS/FSA method; assay type: ADME, tissue-based; conditions: 1 h
Liver cytosol [18] = experiment: Drug metabolism in human liver cytosol assessed as (1R,2S,5S)-N-((2R,3R)-4-amino-1-cyclobutyl-3-hydroxy-4-oxobutan-2-yl)-3-((S)-2-(3-tert-butylureido)-3,3-dimethylbutanoyl)-6,6-dimethyl-3-azabicyclo[3.1.0]hexane-2-carboxamide formation after 60 mins by LC-MS/MS/FSA method; assay type: ADME, tissue-based; conditions: 1 h

T1 sequence (P08684 whole entry): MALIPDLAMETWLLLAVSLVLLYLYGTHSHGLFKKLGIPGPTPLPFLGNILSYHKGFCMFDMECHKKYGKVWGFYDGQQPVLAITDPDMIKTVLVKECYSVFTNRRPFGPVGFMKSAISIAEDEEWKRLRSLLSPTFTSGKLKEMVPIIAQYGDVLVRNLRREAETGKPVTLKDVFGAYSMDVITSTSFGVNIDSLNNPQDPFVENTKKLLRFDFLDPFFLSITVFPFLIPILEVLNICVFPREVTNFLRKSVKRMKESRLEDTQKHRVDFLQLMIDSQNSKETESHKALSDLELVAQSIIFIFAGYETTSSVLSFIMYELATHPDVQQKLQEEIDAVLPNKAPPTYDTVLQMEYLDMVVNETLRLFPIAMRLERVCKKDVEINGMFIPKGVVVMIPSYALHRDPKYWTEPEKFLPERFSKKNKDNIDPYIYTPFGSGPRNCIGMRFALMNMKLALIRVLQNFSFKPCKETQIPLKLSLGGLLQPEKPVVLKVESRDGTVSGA
T2 sequence (P20815 whole entry): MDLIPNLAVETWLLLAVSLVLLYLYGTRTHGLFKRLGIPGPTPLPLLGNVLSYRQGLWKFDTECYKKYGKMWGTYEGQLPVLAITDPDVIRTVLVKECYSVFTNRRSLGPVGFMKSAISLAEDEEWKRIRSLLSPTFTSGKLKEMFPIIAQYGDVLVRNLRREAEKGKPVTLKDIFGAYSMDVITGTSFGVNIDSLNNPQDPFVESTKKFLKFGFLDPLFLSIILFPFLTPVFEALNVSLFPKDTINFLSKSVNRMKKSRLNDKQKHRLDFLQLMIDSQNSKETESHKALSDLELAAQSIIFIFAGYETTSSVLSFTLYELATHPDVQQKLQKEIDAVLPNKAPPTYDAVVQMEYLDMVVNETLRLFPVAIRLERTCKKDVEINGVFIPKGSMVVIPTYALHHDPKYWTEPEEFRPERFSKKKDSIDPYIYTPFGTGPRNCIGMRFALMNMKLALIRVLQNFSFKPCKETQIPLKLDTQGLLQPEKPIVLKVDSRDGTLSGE
Cytochrome P450 2C19, sequence (P33261 whole entry): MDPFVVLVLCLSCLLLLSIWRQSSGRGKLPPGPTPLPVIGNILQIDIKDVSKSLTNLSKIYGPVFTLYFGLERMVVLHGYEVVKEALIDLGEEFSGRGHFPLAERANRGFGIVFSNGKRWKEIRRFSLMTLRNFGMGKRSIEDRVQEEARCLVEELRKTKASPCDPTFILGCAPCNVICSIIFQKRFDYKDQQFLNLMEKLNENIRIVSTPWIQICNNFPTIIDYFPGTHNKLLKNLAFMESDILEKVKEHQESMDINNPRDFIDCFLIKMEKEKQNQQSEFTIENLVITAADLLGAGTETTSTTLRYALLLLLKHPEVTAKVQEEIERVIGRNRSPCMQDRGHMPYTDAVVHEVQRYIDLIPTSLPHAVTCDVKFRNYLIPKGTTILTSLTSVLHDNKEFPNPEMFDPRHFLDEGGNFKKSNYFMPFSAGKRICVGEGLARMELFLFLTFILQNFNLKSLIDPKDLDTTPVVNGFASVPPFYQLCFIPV

- Compound recovery (Liver microsome [1]): 1.1%
- Compound recovery (Cytochrome P450 3A4 [2]): 4.57%
- Compound recovery (Cytochrome P450 3A4 [3]): 0.58%
- Compound recovery (Cytochrome P450 3A5 [4]): < 0.81%
- Compound recovery (Liver microsome [5]): 4.2%
- Compound recovery (Cytochrome P450 1A2): 0.29%
- Compound recovery (Cytochrome P450 1A1): 0.33%
- Compound recovery (Cytochrome P450 2B6): 0.22%
- Compound recovery (Cytochrome P450 3A5 [6]): 2.22%
- Compound recovery (Plasma): <= 10%
- Compound recovery (Cytochrome P450 2C19): 0.29%
- Retention_time [7]: 16.6 min
- Compound recovery (Cytochrome P450 4F3): 0.24%
Compound: CC(C)(C)NC(=O)N[C@H](C(=O)N1C[C@H]2[C@@H]([C@H]1C(=O)O)C2(C)C)C(C)(C)C

- Compound recovery [8]: 32%
- Compound recovery [9]: 32%
- inhibition (INH) (Liver cytosol [10]): 78%
- Compound recovery (Liver cytosol [11]): 32%
- Compound recovery (Plasma): >= 50%
- inhibition (INH) (Liver cytosol [12]): 63%
- Retention_time [7]: 43.1 min
Compound: CC(C)(C)NC(=O)N[C@H](C(=O)N1C[C@H]2[C@@H]([C@H]1C(=O)N[C@H](CC1CCC1)[C@@H](O)C(N)=O)C2(C)C)C(C)(C)C

- Vmax/Km (Liver cytosol [13]): 2.2 µL/min
- Km (Liver cytosol [14]): 13 µM
- Vmax (Liver cytosol [15]): 34.9 pmol/min
- Vmax/Km (Liver cytosol [16]): 2.8 µL/min
- Vmax (Liver cytosol [17]): 28.6 pmol/min
- Km (Liver cytosol [18]): 12.5 µM
Compound: CC(C)(C)NC(=O)N[C@H](C(=O)N1C[C@H]2[C@@H]([C@H]1C(=O)NC(CC1CCC1)C(=O)C(N)=O)C2(C)C)C(C)(C)C (stereo in doubt) [BOCEPREVIR]
